What was measured:
[1] = biological target: T1, Interstitial collagenase (Homo sapiens, UniProt P03956); assay: Inhibition of human fibroblast collagenase (MMP-1)
T1 sequence (P03956 whole entry): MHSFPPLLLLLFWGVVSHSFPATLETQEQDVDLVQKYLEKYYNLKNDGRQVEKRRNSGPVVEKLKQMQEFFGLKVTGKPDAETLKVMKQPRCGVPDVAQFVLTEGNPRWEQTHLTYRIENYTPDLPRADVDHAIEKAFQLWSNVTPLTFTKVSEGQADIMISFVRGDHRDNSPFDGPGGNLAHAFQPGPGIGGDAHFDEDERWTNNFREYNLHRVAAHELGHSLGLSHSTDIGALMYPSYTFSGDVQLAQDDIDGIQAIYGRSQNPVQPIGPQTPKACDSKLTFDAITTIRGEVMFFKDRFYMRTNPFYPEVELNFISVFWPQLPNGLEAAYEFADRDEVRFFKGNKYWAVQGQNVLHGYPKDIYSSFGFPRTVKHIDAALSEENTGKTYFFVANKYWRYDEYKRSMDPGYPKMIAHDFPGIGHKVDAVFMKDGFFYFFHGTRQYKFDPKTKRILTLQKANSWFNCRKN

[2] = biological target: 72 kDa type IV collagenase (Homo sapiens, UniProt P08253); assay: Inhibition of human gelatinase A (MMP-2)
Chain of 72 kDa type IV collagenase (P08253 whole entry): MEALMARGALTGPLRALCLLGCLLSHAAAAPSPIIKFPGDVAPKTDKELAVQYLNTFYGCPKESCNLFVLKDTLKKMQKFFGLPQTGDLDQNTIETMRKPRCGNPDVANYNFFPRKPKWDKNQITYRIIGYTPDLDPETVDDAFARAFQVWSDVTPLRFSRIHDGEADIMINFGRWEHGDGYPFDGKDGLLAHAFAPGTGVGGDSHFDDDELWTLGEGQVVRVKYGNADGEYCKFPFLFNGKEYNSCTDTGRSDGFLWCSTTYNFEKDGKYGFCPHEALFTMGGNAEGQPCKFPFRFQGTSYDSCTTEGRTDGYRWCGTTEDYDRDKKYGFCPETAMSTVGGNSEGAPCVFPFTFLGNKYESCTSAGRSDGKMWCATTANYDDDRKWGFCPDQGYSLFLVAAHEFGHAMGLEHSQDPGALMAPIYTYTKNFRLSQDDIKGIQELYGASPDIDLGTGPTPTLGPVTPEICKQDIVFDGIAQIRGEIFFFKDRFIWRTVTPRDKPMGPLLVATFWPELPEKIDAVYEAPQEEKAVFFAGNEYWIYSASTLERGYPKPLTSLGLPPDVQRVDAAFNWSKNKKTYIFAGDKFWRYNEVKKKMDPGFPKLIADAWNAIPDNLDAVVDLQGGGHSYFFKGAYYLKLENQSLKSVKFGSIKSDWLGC

[3] = biological target: Stromelysin-1 (Homo sapiens, UniProt P08254)
Chain of Stromelysin-1 (P08254 whole entry): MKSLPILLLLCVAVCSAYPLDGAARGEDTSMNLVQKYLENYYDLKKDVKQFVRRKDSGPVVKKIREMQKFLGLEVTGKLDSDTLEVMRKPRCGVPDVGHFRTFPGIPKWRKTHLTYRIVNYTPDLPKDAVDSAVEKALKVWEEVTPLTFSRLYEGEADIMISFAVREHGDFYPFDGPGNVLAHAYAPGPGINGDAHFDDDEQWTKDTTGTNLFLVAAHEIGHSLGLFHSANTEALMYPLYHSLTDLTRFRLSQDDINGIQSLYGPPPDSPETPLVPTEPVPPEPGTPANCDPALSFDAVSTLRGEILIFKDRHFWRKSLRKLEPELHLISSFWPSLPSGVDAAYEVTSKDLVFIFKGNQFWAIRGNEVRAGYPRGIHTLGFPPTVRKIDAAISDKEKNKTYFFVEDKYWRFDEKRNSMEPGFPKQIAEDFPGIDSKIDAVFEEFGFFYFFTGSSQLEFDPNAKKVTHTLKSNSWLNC
Description: Inhibition of human fibroblast stromelysin (MMP-3)

Ki [1]	Ki [2]	Ki [3]	SMILES
760 nM	200 nM		CC(C)C[C@H](NC(=O)[C@H](CCc1ccccc1)N[C@H](C)C(=O)O)C(=O)Nc1ccccc1 [L-696418]
> 10000 nM	120 nM	1600 nM	CCCCCCCC[C@H](N[C@H](C)C(=O)O)C(=O)N[C@@H](CCCN=C(N)N)C(=O)Nc1ccccc1
> 10000 nM	110 nM	370 nM	C[C@@H](N[C@@H](CCCCCCCCCN)C(=O)N[C@@H](CCCN=C(N)N)C(=O)Nc1ccccc1)C(=O)O
> 10000 nM	560 nM	850 nM	CCCCCCCCCC[C@H](N[C@H](C)C(=O)O)C(=O)N[C@@H](CC(C)C)C(=O)Nc1ccccc1
> 10000 nM	500 nM	240 nM	CC(C)C[C@H](NC(=O)[C@H](CCCCCCCCCN)N[C@H](C)C(=O)O)C(=O)Nc1ccccc1
> 10000 nM	340 nM	570 nM	CCCCCCCC[C@H](N[C@H](C)C(=O)O)C(=O)N[C@@H](CC(C)C)C(=O)Nc1ccccc1

Reference: ChEMBL document CHEMBL1128847, “Inhibition of matrix metalloproteinases by N-carboxyalkyl peptides containing extended alkyl residues At P1'” (Bioorg Med Chem Lett, 1995)
